Literature values in paper PMC8472830, “Inclusion of Medium-Chain Triglyceride in Lipid-Based Formulation of Cannabidiol Facilitates Micellar Solubilization In Vitro, but In Vivo Performance Remains Superior with Pure Sesame Oil Vehicle” (Pharmaceutics, 2021).

Tests used:
[1] = set-up: method as in PMID 12412831; conditions: pH 7.4
[2] = set-up: method as in PMID 32634571; conditions: healthy male volunteers
[3] = set-up: method as in PMID 29109461, PMID 27648135; conditions: rats, oral, natural sesame oil vehicle

## C=C(C)[C@@H]1CCC(C)=C[C@H]1c1c(O)cc(CCCCC)cc1O [CBD, Cannabidiol]
[1]
  clogD7.4: 6.53
[2]
  Increase of CBD oral absorption in sesame oil compared to CBD powder: eight-fold
[3]
  Drug concentration in lymph fluid compared to plasma: 250 fold
  Increase of systemic bioavailability of CBD compared to the lipid-free vehicle: 2.8 fold
